Results as given in patent US11098053B2, “Enhanced osteogenic activity of daidzein analogs on human mesenchymal stem cells” (THE ADMINISTRATORS OF THE TULANE EDUCATIONAL FUND, priority 2013, dated 2021).

Tests used:
BMSCs [1] = system: BMSCs
ASCs = experiment: Osteogenic differentiation of ASCs (alizarin red); settings: 14 days
BMSCs [2] = experiment: Osteogenic differentiation of BMSCs (alizarin red); settings: 14 days
[3] = system: Human bone marrow derived mesenchymal stem cells (MSCs); experiment: Osteogenic differentiation of MSCs (Alizarin Red calcium deposition); settings: 1 μM, 14 days
[4] = 1 μM + 100 nM fulvestrant, FIG. 12
[5] = n=6 donors, estrogen 10 nM, others 1 μM

SMILES: O=c1c(-c2ccc(O)cc2)coc2cc(OC3CCCC3)ccc12 [2g, 7-Cyclopentyloxy-3-(4-hydroxyphenyl)-4H-chromen-4-one]
- cytotoxicity at higher dosages (BMSCs [1]): nor lead to cytotoxicity
- osteogenic potential of ASCs relative to vehicle, with fulvestrant (ASCs; [4]): 0.9 fold
- osteogenic potential of ASCs relative to vehicle, inhibitor study, without fulvestrant (ASCs; 1 μM, FIG. 12): 2.0 fold
- osteogenic differentiation (calcium deposition), fold relative to vehicle-treated ASCs (ASCs; [5]): 2.0 fold
- osteogenic potential of BMSCs relative to vehicle, with fulvestrant (BMSCs [2]; [4]): 0.8 fold
- osteogenic potential of BMSCs relative to vehicle, inhibitor study, without fulvestrant (BMSCs [2]; 1 μM, FIG. 12): 1.9 fold
- osteogenic differentiation (calcium deposition), fold relative to vehicle-treated BMSCs (BMSCs [2]; [5]): 1.6 fold
- osteogenic activity (structure-activity summary, in words) ([3]; donor MSCs): modest osteogenic activity
- osteogenesis averaged over all three donors, relative to vehicle treated MSCs ([3]; three donors): 2.0±0.64
